According to patent publication US7745377B2, “Labeled peptides, proteins and antibodies and processes and intermediates useful for their preparation” (priority 2000, dated 2010):

B1: mero-CBD: cdc42 binding domain of WASP (amino acids 201 to 321) conjugated to the merocyanine dye shown in FIG. 11 (conjugate)
chain: DIQNPDITSSRYRGLPAPGPSPADKKRSGKKKISKADIGAPSGFKHVSHVGWDPQNGFDVNNLDPDLRSLCSRAGISEAQLTDAETSKLIYDFIEDQGGLEAVRQEMRRQEPLPPPPPPSHHHHHH

Legend:
[1] = Spectral data of merocyanine dyes (absorbance and fluorescence spectra); assay type: physicochemical; design: Absorption Maximum / Emission Maximum: unit not given here; conditions: n-butanol
Method: Absorbance spectra were recorded on Hewlett-Packard HP8452 diode array spectrophotometer and fluorescence spectra were recorded on SPEX Fluorolog 2 spectrometer.

[2] = target: T1, cdc42 (Homo sapiens, UniProt P60953); assay: Fluorescence of mero-CBD solvatochromic activation indicator with cdc42; assay type: binding; conditions: for increase of fluorescence intensity on binding activated cdc42: cdc42-GTPγS, excitation and emission maxima
T1 construct: 6His; made in house
T1 sequence (P60953 whole entry, species assumed): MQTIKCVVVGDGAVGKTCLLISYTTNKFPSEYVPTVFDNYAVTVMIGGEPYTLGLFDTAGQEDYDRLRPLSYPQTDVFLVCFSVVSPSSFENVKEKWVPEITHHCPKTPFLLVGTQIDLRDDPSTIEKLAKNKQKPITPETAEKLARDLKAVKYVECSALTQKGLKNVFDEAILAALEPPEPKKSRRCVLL
Method: (§1) Analyses of the solvatochromic activation indicator—A solution of mero-CBD (300 nM) in assay buffer was mixed 1:1 (v/v) with solutions of cdc42 (concentration as indicated), pre-equilibrated with 10 mM GDP or GTPγS as described in Knaus, U. G., Heyworth, P. G., Kinsella, B. T., Curnutte, J. T., and Bokoch, G. M. (1992) J. Biol. Chem. 267, 23575-23582. Emission wavelength of 630 nm and excitation wavelength of 600 nm were used to acquire excitation and emission spectra, respectively. For nucleotide dependence, cdc42 (500 nM) was pre-incubated with varying concentrations of GTPγS (1 to 500 nM). Rac1 and RhoA GTPases were pre-equilibrated with GTP […]S in the same manner.
(§2) Fluorescence increase as a measure of CBD-cdc42 interaction—The functionality and specificity of mero-CBD was characterized by measuring fluorescence in the presence of saturating amounts of cdc42-GDP or cdc42-GTPγS. […] Negligible increase (<5%) was also observed in the presence of activated Rac1. No effect on the mero-CBD fluorescence was observed when RhoA-GTPγS was present. Furthermore, even in the presence of excess of activated Rac1 and RhoA, GDP- and GTPγS-bound forms of cdc42 were easily distinguished by CBD-A4C fluorescence (data not shown).

[3] = target: T2, Rac1 (Homo sapiens, UniProt P63000); assay: Fluorescence of mero-CBD with activated Rac1; assay type: binding; conditions: Rac1 pre-equilibrated with GTPγS
T2 construct: 6His; made in house
Method: as §1, §2

[4] = target: T3, RhoA (Homo sapiens, UniProt P61586); assay: Fluorescence of mero-CBD with RhoA-GTPγS; assay type: binding; conditions: RhoA-GTPγS present
T3 construct: 6His; made in house
T3 sequence (P61586 whole entry, species assumed): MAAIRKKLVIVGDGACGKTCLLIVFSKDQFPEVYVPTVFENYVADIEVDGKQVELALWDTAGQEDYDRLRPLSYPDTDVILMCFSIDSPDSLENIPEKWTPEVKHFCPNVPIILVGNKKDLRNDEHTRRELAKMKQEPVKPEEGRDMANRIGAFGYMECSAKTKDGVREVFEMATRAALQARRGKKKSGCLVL
Method: as §1, §2

| Molecule | Absorption Maximum [1] | Emission Maximum [1] | Extinction coefficient (*10^−3) [1] | Quantum Yield [1] | increase of fluorescence intensity on binding activated cdc42 [2] | increase of fluorescence intensity on binding activated cdc42 ([2]; listed as CBD biosensor) | fluorescence increase in presence of cdc42-GDP ([2]; saturating cdc42-GDP) | fluorescence increase in presence of activated Rac1 [3] | effect on mero-CBD fluorescence of RhoA-GTPγS [4] |
| --- | --- | --- | --- | --- | --- | --- | --- | --- | --- |
| O=C1/C(=C/C=C/C=C2/Sc3ccccc3N2CCCS(=O)(=O)[O-])S(=O)(=O)c2ccccc21.[Na+] [Compound 2] | 603 | 623 | 100 | 0.10 |  |  |  |  |  |
| CC1(C)/C(=C/C=C/C=C2/C(=O)c3ccccc3S2(=O)=O)N(CCCS(=O)(=O)[O-])c2ccccc21.[Na+] [Compound 3] |  |  | 120 | 0.17 |  |  |  |  |  |
| CC1(C)/C(=C/C=C/C=C2/C(=O)c3ccccc3C2=C(C#N)C#N)N(CCCS(=O)(=O)[O-])c2ccccc21.[Na+] [Compound 4] |  |  | 80 | 0.10 |  |  |  |  |  |
| B1 |  |  |  |  | Approximately 3.5 fold | up to 3.5 fold | not cdc42-GDP | < 5% | No effect |
